Reference: US8808702B2, “Sulfide, sulfoxide and sulfone chalcone analogues, derivatives thereof and therapeutic uses thereof” (Temple University-of the Commonwealth System of Higher …, priority 2006, dated 2014)
Read-outs that look alike come from different tables or passages of the source.

Columns and labels:
DU145 (prostate cancer) = assay: Effect of compounds on tumor cell lines (assay of Latham et al.), DU145; type: cell-based; settings: Homo sapiens, DU-145, DU145 cells, examined 96 hours after treatment, 1 μM to 100 μM in DMSO, read-out: DU 145 potency (IC50)
Procedure, shortened: (§1)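 After 96 h of exposure to compound (1–100 μM in DMSO; one compound at 0.1–100 μM), effects were scored by inverted-microscope inspection, with trypan blue viable counts by hemacytometer when required. Cells were seeded at 2.5×10^4 per well and dosed 24 h after plating.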

[1] = tested on: K562 (chronic myelogenous leukaemia); assay: Effect of compounds on tumor cell lines (assay of Latham et al.), K562; type: cell-based; settings: Homo sapiens, K562 cells, examined 96 hours after treatment, 1 μM to 100 μM in DMSO, read-out: K 562 potency (IC50)
Procedure, shortened: as §1

Structure (SMILES)	melting point [°C]	IC50 (DU145 (prostate cancer); Table 1) [µM]	IC50 ([1]; Table 1) [µM]	IC50 (DU145 (prostate cancer); Table 4) [µM]	IC50 ([1]; Table 4) [µM]
O=C(/C(=C\c1ccc(I)cc1)Sc1ccc(Br)cc1)c1ccc(Br)cc1 [Example 45, (E)-1-(4-bromophenyl)-2-(4-bromophenylthio)-3-(4-Iodophenyl)-prop-2-en-1-one]	128 to 130	1 to 10	1 to 10		
Cc1ccc(/C=C(\C(=O)c2ccc(Cl)cc2)S(=O)(=O)Cc2ccc(Cl)cc2Cl)s1 [Example 356]	115 to 117			10 to 25	25 to 50
COc1cc(OC)c(/C=C(\C(=O)c2ccc(Cl)cc2)S(=O)(=O)Cc2ccccc2Cl)c(OC)c1 [Example 357]	185 to 192			> 100	25 to 50
O=C(/C(=C\c1ccccc1OCc1ccccc1)S(=O)(=O)Cc1ccccc1Cl)c1ccc(Cl)cc1 [Example 358]	137 to 148			1 to 10	1 to 10
COc1cc(/C=C(\C(=O)c2ccc(Cl)cc2)S(=O)(=O)Cc2ccccc2Cl)cc(OC)c1 [Example 359]	133 to 138			> 100	50 to 100
O=C(/C(=C\c1ccc(Br)cc1)S(=O)(=O)Cc1ccccc1Cl)c1ccc(Cl)cc1 [Example 360]	186 to 192			25 to 50	25 to 50
CCOc1ccc(/C=C(\C(=O)c2ccc(Cl)cc2)S(=O)(=O)Cc2ccccc2Cl)cc1OC [Example 361]	123 to 128			10 to 25	10 to 25
COc1ccccc1/C=C(\C(=O)c1ccc(Cl)cc1)S(=O)(=O)Cc1ccc(Cl)c(Cl)c1 [Example 364]	154 to 157			1 to 10	1 to 10
O=C(/C(=C\c1ccc(O)cc1)S(=O)(=O)Cc1ccc(Cl)c(Cl)c1)c1ccc(Cl)cc1 [Example 366]	195 to 198			10 to 25	10 to 25
COc1ccc(C(=O)/C(=C\c2ccc(Br)cc2)S(=O)(=O)Cc2ccc(Br)cc2)cc1 [Example 371]	146 to 148			1 to 10	1 to 10
O=C(/C(=C\c1ccc(O)c([N+](=O)[O-])c1)S(=O)(=O)Cc1ccc(Br)cc1)c1ccc(Br)cc1 [Example 374]	110 to 112			10 to 25	1 to 10
COc1ccc(/C=C(\C(=O)c2ccc(Cl)cc2)S(=O)(=O)Cc2ccc(Cl)cc2)c(OC)c1OC [Example 375]	148 to 151			10 to 25	1 to 10
O=C(/C(=C\c1cc(Cl)cc(Cl)c1Cl)S(=O)(=O)Cc1ccc(Cl)cc1)c1ccc(Br)cc1 [Example 376]	181 to 188			1 to 10	1 to 10
O=C(/C(=C\c1c(O)cc(O)cc1O)S(=O)(=O)Cc1ccc(Cl)cc1)c1ccc(Cl)cc1 [Example 377]	232 to 236			> 100	> 100
COc1cc(OC)c(/C=C(\C(=O)c2ccc(Br)cc2)S(=O)(=O)Cc2ccc(Cl)cc2)c(OC)c1 [Example 378]	207 to 210			25 to 50	25 to 50
COc1cc(OC)c(/C=C(\C(=O)c2ccc([N+](=O)[O-])cc2)S(=O)(=O)Cc2ccc(Cl)cc2)c(OC)c1 [Example 379]	62 to 64			10 to 25	10 to 25
Cc1ccc(C)c(/C=C(\C(=O)c2ccc(Cl)cc2)S(=O)(=O)Cc2ccc(Cl)cc2)c1 [Example 380]	129 to 136			10 to 25	10 to 25
O=C(/C(=C\c1ccccc1OCc1ccccc1)S(=O)(=O)Cc1ccc(Cl)cc1)c1ccc(Br)cc1 [Example 381]	136 to 142			10 to 25	1 to 10
COc1ccc(/C=C(\C(=O)c2ccc(Br)cc2)S(=O)(=O)Cc2ccc(Cl)cc2)c(O)c1 [Example 382]	72 to 78			10 to 25	10 to 25
COc1ccccc1/C=C(\C(=O)c1ccc(Cl)cc1)S(=O)(=O)Cc1ccc(Cl)cc1 [Example 383]	135 to 142			25 to 50	25 to 50

Structure (SMILES)	melting point [°C]	IC50 (DU145 (prostate cancer); Table 1) [µM]	IC50 ([1]; Table 1) [µM]	IC50 (DU145 (prostate cancer); Table 4) [µM]	IC50 ([1]; Table 4) [µM]
COc1ccccc1/C=C(\C(=O)c1ccc([N+](=O)[O-])cc1)S(=O)(=O)Cc1ccc(Cl)cc1 [Example 384]	136 to 141			10 to 25	10 to 25
Cc1cc(C)cc(/C=C(\C(=O)c2ccc(Cl)cc2)S(=O)(=O)Cc2ccc(Cl)cc2)c1 [Example 385]	146 to 152			1 to 10	1 to 10
CCOc1cc(/C=C(\C(=O)c2ccc(Cl)cc2)S(=O)(=O)Cc2ccc(Cl)cc2)ccc1O [Example 386]	134 to 139			10 to 25	10 to 25
COc1ccsc1/C=C(\C(=O)c1ccc(Br)cc1)S(=O)(=O)Cc1ccc(Cl)cc1 [Example 387]	128 to 136			50 to 100	25 to 50
Cc1ccsc1/C=C(\C(=O)c1ccc(Cl)cc1)S(=O)(=O)Cc1ccc(Cl)cc1 [Example 388]	130 to 139			25 to 50	25 to 50
Cc1ccsc1/C=C(\C(=O)c1ccc([N+](=O)[O-])cc1)S(=O)(=O)Cc1ccc(Cl)cc1 [Example 389]	174 to 179			1 to 10	1 to 10
O=C(/C(=C\c1ccc(OCc2ccccc2)cc1)S(=O)(=O)Cc1ccc(Cl)cc1)c1ccc(Cl)cc1 [Example 391]	91 to 99			1 to 10	1 to 10
O=C(/C(=C\c1ccc(Br)cc1)S(=O)(=O)Cc1ccc(Cl)cc1)c1ccc(Cl)cc1 [Example 392]	100 to 103			10 to 25	10 to 25
CSc1ccc(/C=C(\C(=O)c2ccc(Cl)cc2)S(=O)(=O)Cc2ccc(Cl)cc2)cc1 [Example 394]	94 to 108			10 to 25	10 to 25
COc1ccc(/C=C(\C(=O)c2ccc(Br)cc2)S(=O)(=O)Cc2ccc(Cl)cc2)cc1 [Example 395]	152 to 155			25 to 50	10 to 25
Cc1ccc(/C=C(\C(=O)c2ccc(Cl)cc2)S(=O)(=O)Cc2ccc(Cl)cc2)s1 [Example 396]	148 to 152			1 to 10	1 to 10
Cc1ccc(/C=C(\C(=O)c2ccc([N+](=O)[O-])cc2)S(=O)(=O)Cc2ccc(Cl)cc2)s1 [Example 397]	180 to 182			25 to 50	10 to 25
O=C(/C(=C\c1ccc(-c2ccccc2)cc1)S(=O)(=O)Cc1ccc(Cl)cc1)c1ccc(Cl)cc1 [Example 398]	65 to 72			25 to 50	25 to 50
COc1cc(OC)c(/C=C(\C(=O)c2ccc(Br)cc2)S(=O)(=O)Cc2ccc(F)cc2)c(OC)c1 [Example 399]	176 to 182			50 to 100	50 to 100
COc1cc(OC)c(/C=C(\C(=O)c2ccc(Cl)cc2)S(=O)(=O)Cc2ccc(F)cc2)c(OC)c1 [Example 400]	134 to 138			25 to 50	1 to 10
O=C(/C(=C\c1ccc(O)cc1)S(=O)(=O)Cc1ccc(F)cc1)c1ccc(Br)cc1 [Example 413]	188 to 192				
COc1ccc(/C=C(\C(=O)c2ccc(Br)cc2)S(=O)(=O)Cc2ccc(F)cc2)cc1 [Example 415]	121 to 123				
Cc1ccc(/C=C(\C(=O)c2ccc(Br)cc2)S(=O)(=O)Cc2ccc(F)cc2)s1 [Example 416]	156 to 161				
Cc1ccc(/C=C(\C(=O)c2ccc(Cl)cc2)S(=O)(=O)Cc2ccc(F)cc2)s1 [Example 417]	116 to 120				
COc1ccc(CS(=O)(=O)/C(=C/c2c(OC)cc(OC)cc2OC)C(=O)c2ccc(OC)cc2)cc1 [Example 422, (E)-1-(4-methoxyphenyl)-2-(4-methoxybenzylsulfonyl)-3-(2,4,6-trimethoxyphenyl)-prop-2-en-1-one]	60 to 62				
